Measurements from US20080171794A1, “HUMECTANT COMPOSITION” (TAKASAGO INTERNATIONAL CORPORATION, priority 2007, published 2008).

System: inside of the forearm
Assay: Skin conductance with time after water supply to the site treated with emollient milk
Type: in vivo, human
Details: conclusion from Tables 5 and 6; conductance on forearm after water supply
Method: Each of the emollient milks described in Table 3 was applied to the inside of the forearm in the same manner in Test Example 2, and dried for 30 minutes. A drop of distilled water was placed on that site to conduct water supply for 10 seconds, followed by wiping off. Then, the conductance values were measured with time for 15 minutes (n=3).
Process: Emollient milks having the same components as described in Table 3 with the exception that 3-(menthoxy)propane-1,2-diol was substituted by p-menthane-3,8-diol were prepared (Example 3 and Comparative Example 3). Each was applied to the inside of the forearm in an amount of 65 mg/cm^2, and evaluated in the same manner as in Test Example 3.

For CC1CCC(C(C)(C)O)C(O)C1 (stereo not shown) [p-menthane-3,8-diol], the “water-retention function (in words)” value was “excellent water-retention function”.
